Data taken from ChEMBL document CHEMBL1152913, “Discovery of 4-azaindoles as novel inhibitors of c-Met kinase” (Bioorg Med Chem Lett, 2009).
Values belong to the molecule of their own block, whether it stands above or below them. The source made the active and inactive calls. The calls are words filed in the database; no cut-off is given here.

How the values were obtained:
Hepatocyte = assay: Clearance rate in hepatocytes; format: ADME, cell-based, Liver
[1] = molecular target: T1, Hepatocyte growth factor receptor (Homo sapiens, UniProt P08581)
Description: (§1) Inhibition of human recombinant His-tagged c-Met by TR-FRET assay

[2] = molecular target: T1, Hepatocyte growth factor receptor; assay: Inhibition of human recombinant His-tagged c-Met at 20 uM by TR-FRET assay
[3] = molecular target: Mitogen-activated protein kinase 1 (Homo sapiens) (UniProt P28482); assay: Inhibition of ERK2 assessed as residual activity at 20 uM
[4] = molecular target: T1, Hepatocyte growth factor receptor; assay: Inhibition of c-Met phosphorylation in human A549 cells after 1 hr; format: cell-based
[5] = molecular target: Macrophage-stimulating protein receptor (Homo sapiens) (UniProt Q04912); assay: Inhibition of Ron assessed as residual activity at 20 uM
[6] = molecular target: Vascular endothelial growth factor receptor 2 (Homo sapiens) (UniProt P35968); assay: Inhibition of KDR assessed as residual activity at 20 uM
[7] = molecular target: T1, Hepatocyte growth factor receptor; remark: listed apart in the source
Description: as §1

[8] = molecular target: RAC-alpha serine/threonine-protein kinase (Homo sapiens) (UniProt P31749); assay: Inhibition of AKT phosphorylation in human MKN45 cells after 1 hr by Western blot analysis; format: cell-based; details: MKN-45
[9] = molecular target: Mitogen-activated protein kinase 1 (Homo sapiens) (UniProt P28482); assay: Inhibition of ERK2 phosphorylation in human MKN45 cells after 1 hr by Western blot analysis; format: cell-based; details: MKN-45
[10] = molecular target: High affinity nerve growth factor receptor (Homo sapiens) (UniProt P04629); assay: Inhibition of TrkA assessed as residual activity at 20 uM
[11] = molecular target: T2, Tyrosine-protein kinase Mer (Homo sapiens) (UniProt Q12866); assay: Inhibition of Mer assessed as residual activity at 20 uM
T2 sequence (whole entry): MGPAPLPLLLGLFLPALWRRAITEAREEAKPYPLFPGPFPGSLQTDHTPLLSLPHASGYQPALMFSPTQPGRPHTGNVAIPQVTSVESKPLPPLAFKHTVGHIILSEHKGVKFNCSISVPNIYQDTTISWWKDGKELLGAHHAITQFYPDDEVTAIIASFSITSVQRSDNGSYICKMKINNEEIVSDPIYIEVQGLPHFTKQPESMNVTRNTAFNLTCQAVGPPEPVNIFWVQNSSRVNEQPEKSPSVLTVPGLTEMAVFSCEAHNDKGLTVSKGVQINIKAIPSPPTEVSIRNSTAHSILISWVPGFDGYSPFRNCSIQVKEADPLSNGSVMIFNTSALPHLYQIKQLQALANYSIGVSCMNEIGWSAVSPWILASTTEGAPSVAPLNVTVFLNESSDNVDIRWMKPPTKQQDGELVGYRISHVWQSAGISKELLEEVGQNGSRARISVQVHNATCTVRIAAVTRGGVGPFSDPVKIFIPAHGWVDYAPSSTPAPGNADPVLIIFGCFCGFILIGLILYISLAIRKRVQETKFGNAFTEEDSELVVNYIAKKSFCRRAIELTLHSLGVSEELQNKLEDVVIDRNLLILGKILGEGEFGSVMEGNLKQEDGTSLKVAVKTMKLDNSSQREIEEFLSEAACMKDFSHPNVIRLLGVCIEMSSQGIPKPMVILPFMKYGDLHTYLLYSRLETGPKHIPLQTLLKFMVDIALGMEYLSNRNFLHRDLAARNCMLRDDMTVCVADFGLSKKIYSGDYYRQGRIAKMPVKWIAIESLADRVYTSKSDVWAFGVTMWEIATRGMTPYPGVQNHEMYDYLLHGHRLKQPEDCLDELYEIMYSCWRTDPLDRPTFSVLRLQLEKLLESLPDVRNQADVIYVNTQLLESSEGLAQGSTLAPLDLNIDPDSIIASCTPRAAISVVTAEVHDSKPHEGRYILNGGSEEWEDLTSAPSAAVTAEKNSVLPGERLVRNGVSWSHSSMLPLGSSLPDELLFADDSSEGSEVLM

[12] = molecular target: Mitogen-activated protein kinase 3 (Homo sapiens) (UniProt P27361); assay: Inhibition of ERK1 phosphorylation in human MKN45 cells after 1 hr by Western blot analysis; format: cell-based; details: MKN-45
[13] = molecular target: T1, Hepatocyte growth factor receptor; assay: Inhibition of c-Met phosphorylation in human MKN45 cells after 1 hr; format: cell-based, MKN-45
[14] = molecular target: RAC-alpha serine/threonine-protein kinase (Homo sapiens) (UniProt P31749); assay: Inhibition of AKT assessed as residual activity at 20 uM
[15] = molecular target: Mitogen-activated protein kinase 3 (Homo sapiens) (UniProt P27361); assay: Inhibition of ERK1 assessed as residual activity at 20 uM

Structure (SMILES): c1ccc(Cn2ccc3ncccc32)cc1
- IC50 [1]: Inactive

Structure (SMILES): O=S(=O)(c1c(Cl)nc2sccn12)n1ccc2ncc(N3CCNCC3)cc21
- CL (Hepatocyte): 1 s⁻¹

Structure (SMILES): O=[N+]([O-])c1ccc(S(=O)(=O)n2ccc3ncccc32)cc1
- inhibition [2]: 16%

Results, then the molecule that gave them:

- CL (Hepatocyte): 0.3 s⁻¹
Structure (SMILES): O=S(=O)(c1c(Cl)nc2sccn12)n1ccc2ncc(-c3cnn(C4CCNCC4)c3)cc21

- inhibition [3]: inactive
- IC50 [4]: 130 nM
- Activity [5]: 29%
- Activity [6]: 3%
- IC50 [7]: 9 nM
- inhibition [8]: Active
- inhibition [9]: Active
- Activity [10]: 18%
- Activity [11]: 19%
- inhibition [12]: Active
- IC50 [13]: 200 nM
- Activity [14]: 88%
- Activity [15]: 88%
Structure (SMILES): O=S(=O)(c1cccc2nonc12)n1ccc2ncc(-c3cnn(C4CCNCC4)c3)cc21
